Patent US9650389B2, “8-oxoprotoberberine derivative or pharmaceutically acceptable salt thereof, preparation method therefor and pharmaceutical composition for preventing or treating diseases associated with activity of NFAT5, containing same as active ingredient” (Korea Research Institute of Chemical Technology, priority 2013, dated 2017)
Each block holds one molecule with its values, some of them ahead of it.

How the values were obtained:
[1] = test system: iNOS; assay: Inhibition of LPS-induced iNOS induction in Raw264.7 cells (Griess reagent); type: cell-based; conditions: Mus musculus, Raw264.7, LPS 100 ng/ml, 24 hours, read-out: Inhibition rate of iNOS induction (%)
Procedure: To investigate whether or not the derivative of the present invention could inhibit iNOS inducement, Raw264.7 cells (mouse macrophages) were distributed in a 384-well plate at the density of 3×10^4 cells/well. The cells were treated with LPS at the concentration of 100 ng/ml, followed by culture at 37° C. for 24 hours. The concentration of […] increased in the medium was measured by using Griess reagent. The inhibition rate was calculated by mathematical formula based on the detected signals. The results are shown in Table 2. % inhibition=(mean value of sample−mean value of negative control)/(mean value of positive control −mean value of negative control)×100 [Mathematical Formula 1]

[2] = biological target: T1, NFAT5 (Mus musculus, UniProt Q9WV30); assay: NFAT5 reporter screening (GFP, HCS) in LPS-treated Raw264.7 cells; type: cell-based; conditions: for Inhibition rate of NFAT5 transcription (%): Raw264.7 reporter, LPS 1 μg/ml, 48 hours
T1 construct: endogenous in cells; host or cells: RAW264.7
Procedure: To investigate whether or not the derivative of the present invention could inhibit the transcriptional activity of NFAT5, NFAT5 reporter screening was performed. A plasmid vector was constructed by eliminating CMV promoter sequence from the backbone and inserting NFAT5 binding site sequence ([…]) instead. Raw264.7 cells transfected with the vector were cultured in 10% FBS-PRMI (supplemented with 500 μg/ml G418). The cells were distributed in a 96-well plate at the density of 3×10^3 cells/well, followed by further culture for one more day. The cells were treated with LPS at the concentration of 1 μg/ml for 48 hours. Then, the cells were fixed and the expression level of GFP was measured by HCS fluorescence image (Thermo, ArrayScan^VTI).

[3] = Cytotoxicity test (WST-8), VERO; type: cell-based; conditions: African green monkey, VERO kidney cells
Procedure: (§1) To investigate the cytotoxicity of the derivative of the present invention, 5 kinds of cell lines (VERO: African green monkey kidney cell line, HFL-1: human embryonic lung cell line, L929: NCTC clone 929, mouse fibroblast cell line, NIH 3T3: mouse embryonic fibroblast cell line, and CHO-K1: Chinese hamster ovary cell line) were distributed in a 96-well plate at the density of 1×10^4 cells/well, which were treated with the compound of the present invention for 24 hours. The water-soluble tetrazolium salt WST-8 was added thereto. The orange colored formazan dye degraded by dehydrogenase in the live cells was read, followed by nonlinear regression to determine 50% growth inhibition concentration.

[4] = Cytotoxicity test (WST-8), L929; type: cell-based; conditions: mouse, L929 fibroblast cells (NCTC clone 929); L929, 24 hours
Procedure: as §1

[5] = Cytotoxicity test (WST-8), HFL-1; type: cell-based; conditions: human, HFL-1 embryonic lung cells; HFL-1, 24 hours
Procedure: as §1

[6] = Cytotoxicity test (WST-8), NIH 3T3; type: cell-based; conditions: mouse, NIH 3T3 embryonic fibroblast cells; NIN3T3, 24 hours
Procedure: as §1

[7] = Cytotoxicity test (WST-8), CHO-K1; type: cell-based; conditions: Chinese hamster, CHO-K1 ovary cells; CHO-K1, 24 hours
Procedure: as §1

[8] = biological target: T2, COX1 (Ovis aries, UniProt P05979); assay: COX inhibition, COX assay kit (Table 4); type: biochemical
T2 construct: purchased Cayman Co. 760111
T2 sequence (P05979 25-600): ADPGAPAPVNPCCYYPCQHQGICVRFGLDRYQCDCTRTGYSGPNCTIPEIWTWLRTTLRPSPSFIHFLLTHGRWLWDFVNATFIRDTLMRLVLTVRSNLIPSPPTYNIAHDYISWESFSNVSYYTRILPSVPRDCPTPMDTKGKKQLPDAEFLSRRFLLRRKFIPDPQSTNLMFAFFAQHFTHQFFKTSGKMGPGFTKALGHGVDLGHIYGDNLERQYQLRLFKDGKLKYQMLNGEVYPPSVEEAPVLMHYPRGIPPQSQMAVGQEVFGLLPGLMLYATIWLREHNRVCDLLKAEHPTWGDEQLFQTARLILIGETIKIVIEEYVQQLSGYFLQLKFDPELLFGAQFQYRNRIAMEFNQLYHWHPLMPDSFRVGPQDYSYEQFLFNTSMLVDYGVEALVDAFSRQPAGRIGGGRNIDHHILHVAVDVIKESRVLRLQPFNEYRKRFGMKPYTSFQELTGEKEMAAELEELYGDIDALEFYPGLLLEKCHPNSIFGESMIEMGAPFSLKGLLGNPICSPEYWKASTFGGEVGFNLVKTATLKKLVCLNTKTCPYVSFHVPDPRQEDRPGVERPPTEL
Procedure: (§2) 10 μl of substrate and 10 μl of arachidonic acid were added thereto, followed by reaction for 10 minutes in the darkness. Then, OD590 was measured.

[9] = biological target: T3, COX2 (Ovis aries, UniProt P79208); assay: COX inhibition, COX assay kit (Table 5); type: biochemical
T3 construct: purchased Cayman Co. 760111
T3 sequence (P79208 17-603): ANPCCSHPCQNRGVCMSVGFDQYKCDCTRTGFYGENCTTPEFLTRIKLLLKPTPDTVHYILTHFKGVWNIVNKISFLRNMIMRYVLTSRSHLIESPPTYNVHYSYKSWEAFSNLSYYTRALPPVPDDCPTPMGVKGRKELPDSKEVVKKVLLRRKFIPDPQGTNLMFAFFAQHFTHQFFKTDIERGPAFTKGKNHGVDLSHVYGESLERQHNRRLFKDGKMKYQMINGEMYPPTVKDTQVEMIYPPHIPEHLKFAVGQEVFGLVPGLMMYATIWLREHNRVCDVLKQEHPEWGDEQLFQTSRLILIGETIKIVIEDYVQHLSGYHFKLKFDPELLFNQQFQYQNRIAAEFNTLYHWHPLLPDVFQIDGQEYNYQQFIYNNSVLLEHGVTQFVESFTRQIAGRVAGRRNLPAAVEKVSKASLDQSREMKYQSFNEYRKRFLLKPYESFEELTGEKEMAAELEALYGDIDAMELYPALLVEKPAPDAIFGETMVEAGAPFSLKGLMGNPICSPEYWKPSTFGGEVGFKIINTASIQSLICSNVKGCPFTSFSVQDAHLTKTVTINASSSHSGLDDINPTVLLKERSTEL
Procedure: as §2

[10] = Conc. 0.16 μM, two values per substance
[11] = Conc. 0.16 μM, two values per substance, read-out: inhibition rate
[12] = Conc. 0.8 μM, two values per substance
[13] = Conc. 0.8 μM, two values per substance, read-out: inhibition rate
[14] = Conc. 4 μM, two values per substance
[15] = Conc. 4 μM, two values per substance, read-out: inhibition rate
[16] = Conc. 20 μM, two values per substance
[17] = Conc. 20 μM, two values per substance, read-out: inhibition rate
[18] = Conc. 100 μM, two values per substance
[19] = Conc. 100 μM, two values per substance, read-out: inhibition rate

T1 sequence (Q9WV30 whole entry): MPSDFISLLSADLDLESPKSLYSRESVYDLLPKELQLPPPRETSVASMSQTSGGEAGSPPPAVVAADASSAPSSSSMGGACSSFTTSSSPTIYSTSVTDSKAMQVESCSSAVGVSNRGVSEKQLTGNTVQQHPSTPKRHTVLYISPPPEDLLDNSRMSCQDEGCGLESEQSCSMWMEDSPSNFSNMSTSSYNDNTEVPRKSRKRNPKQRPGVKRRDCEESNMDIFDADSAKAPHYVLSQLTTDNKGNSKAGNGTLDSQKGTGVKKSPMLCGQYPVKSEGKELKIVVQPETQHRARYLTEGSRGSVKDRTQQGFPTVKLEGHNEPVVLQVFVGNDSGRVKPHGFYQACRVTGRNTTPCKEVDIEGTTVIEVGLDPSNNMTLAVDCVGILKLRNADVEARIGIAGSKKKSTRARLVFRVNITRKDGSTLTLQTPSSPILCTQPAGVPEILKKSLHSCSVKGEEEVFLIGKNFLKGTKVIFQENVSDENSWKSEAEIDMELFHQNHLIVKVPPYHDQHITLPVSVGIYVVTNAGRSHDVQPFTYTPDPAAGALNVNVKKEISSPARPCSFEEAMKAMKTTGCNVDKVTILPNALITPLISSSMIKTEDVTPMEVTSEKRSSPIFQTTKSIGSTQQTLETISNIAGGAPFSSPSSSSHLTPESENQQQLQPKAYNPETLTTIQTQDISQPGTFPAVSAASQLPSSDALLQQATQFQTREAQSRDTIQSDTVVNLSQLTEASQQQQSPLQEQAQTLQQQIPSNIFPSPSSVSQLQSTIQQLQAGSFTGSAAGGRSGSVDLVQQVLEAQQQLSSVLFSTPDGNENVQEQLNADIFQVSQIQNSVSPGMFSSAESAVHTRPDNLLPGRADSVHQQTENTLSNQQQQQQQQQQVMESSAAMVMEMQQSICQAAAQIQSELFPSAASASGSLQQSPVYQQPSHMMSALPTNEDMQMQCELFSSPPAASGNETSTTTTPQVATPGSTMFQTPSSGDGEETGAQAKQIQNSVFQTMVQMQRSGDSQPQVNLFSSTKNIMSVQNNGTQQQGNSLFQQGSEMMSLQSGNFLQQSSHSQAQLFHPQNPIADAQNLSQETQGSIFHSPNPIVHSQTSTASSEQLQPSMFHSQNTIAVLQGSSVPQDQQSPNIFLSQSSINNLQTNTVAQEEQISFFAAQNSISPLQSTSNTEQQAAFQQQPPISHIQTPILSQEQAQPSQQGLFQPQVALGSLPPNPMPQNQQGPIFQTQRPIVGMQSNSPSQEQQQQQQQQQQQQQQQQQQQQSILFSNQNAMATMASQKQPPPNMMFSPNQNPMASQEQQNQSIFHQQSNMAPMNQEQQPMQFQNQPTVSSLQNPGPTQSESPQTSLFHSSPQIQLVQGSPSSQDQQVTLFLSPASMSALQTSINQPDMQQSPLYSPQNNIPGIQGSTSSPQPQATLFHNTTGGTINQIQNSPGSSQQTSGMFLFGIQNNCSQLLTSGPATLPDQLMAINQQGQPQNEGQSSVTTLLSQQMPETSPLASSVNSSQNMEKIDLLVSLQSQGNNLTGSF

Compound: COc1ccc2c(Cc3ccccn3)c3n(c(=O)c2c1OC)CCc1cc2c(cc1-3)OCO2 [Example 6, 9,10-dimethoxy-13-(pyridine-2-ylmethyl)-5,6-dihydro-[1,3]dioxolo[4,5-g]isoquinolino [3,2-a]isoquinoline-8(6H)-one]
inhibition at 1 µM [1]: 7.2%
inhibition at 10 µM [1]: 115%
Inhibition rate of NFAT5 transcription (%) ([2]; 1 μM): 9.9%
Inhibition rate of NFAT5 transcription (%) ([2]; 10 μM): 67.9%
inhibiting NFAT5 activity (in words) ([2]; Table 3 and FIG. 1): remarkably excellent in inhibiting NFAT5 activity
GI50 at 24 h [3]: > 100 µM
GI50 at 24 h [4]: > 100 µM
GI50 at 24 h [5]: > 100 µM
GI50 at 24 h [6]: > 100 µM
GI50 at 24 h [7]: > 100 µM

Compound: COc1ccc2cc3[n+](cc2c1OC)CCc1cc2c(cc1-3)OCO2 [Berberine]
inhibition rate [8, 10]: 5.4
inhibition at 0.16 µM [8, 11]: 3.3%
inhibition rate [8, 12]: 13.4
inhibition at 0.8 µM [8, 13]: 12.4%
inhibition rate [8, 14]: 20.4
inhibition at 4 µM [8, 15]: 18.4%
inhibition rate [8, 16]: 31.4
inhibition at 20 µM [8, 17]: 24.4%
inhibition rate [8, 18]: 51.5
inhibition at 100 µM [8, 19]: 53.5%
IC50 ([8]; Table 4): 96.3 µM
inhibition at 0.032 µM ([9]; Conc. 0.032 μM, two values per substance, read-out: inhibition rate): 0%
inhibition rate [9, 10]: 7.9
inhibition at 0.16 µM [9, 11]: 8.8%
inhibition rate [9, 12]: 19.8
inhibition at 0.8 µM [9, 13]: 17.2%
inhibition rate [9, 14]: 29.9
inhibition at 4 µM [9, 15]: 28.2%
inhibition rate [9, 16]: 39.3
inhibition at 20 µM [9, 17]: 41%
inhibition rate [9, 18]: 53.7
inhibition at 100 µM [9, 19]: 50.3%
IC50 ([9]; Table 5): 58.4 µM

Compound: COc1ccc2c(Cc3ccccc3C)c3n(c(=O)c2c1OC)CCc1cc2c(cc1-3)OCO2 [Example 4, 9,10-dimethoxy-13-(2-methylbenzyl)-5,6-dihydro-[1,3]dioxolo[4,5-g]isoquinolino [3,2-a]isoquinoline-8(6H)-one]
inhibition at 1 µM [1]: 23.2%
inhibition at 10 µM [1]: 97.9%
Inhibition rate of NFAT5 transcription (%) ([2]; 1 μM): 7.4%
Inhibition rate of NFAT5 transcription (%) ([2]; 10 μM): 88.2%

Now from value to molecule, other results behind:

Inhibition rate of NFAT5 transcription (%) ([2]; 1 μM): −2.9%
Inhibition rate of NFAT5 transcription (%) ([2]; 10 μM): −5.2%
Compound: COc1ccc2c(C(N)=O)c3n(c(=O)c2c1OC)CCc1cc2c(cc1-3)OCO2 [Example 12, 9,10-dimethoxy-8-oxo-6,8-dihydro-5H-[1,3]dioxolo[4,5-g]isoquinolino[3,2-a]isoquinoline-13-carboxamide]
inhibition at 1 µM [1]: 35.4%
inhibition at 10 µM [1]: 107%

Inhibition rate of NFAT5 transcription (%) ([2]; 1 μM): 0.5%
Inhibition rate of NFAT5 transcription (%) ([2]; 10 μM): 16.4%
Compound: COc1ccc2c(C(=O)c3ccccc3F)c3n(c(=O)c2c1OC)CCc1cc2c(cc1-3)OCO2 [Example 9, 13-(2-fluorobenzoyl)-9,10-dimethoxy-5H-[1,3]dioxolo[4,5-g]isoquinolino[3,2-a]isoquinoline-8(6H)-one]
inhibition at 1 µM [1]: 65.6%
inhibition at 10 µM [1]: 117%
